# Measurements published in article PMC9331544, “Molecular Physicochemical Properties of Selected Pesticides as Predictive Factors for Oxidative Stress and Apoptosis-Dependent Cell Death in Caco-2 and HepG2 Cells” (International Journal of Molecular Sciences, 2022).
# Where two headings read alike, the source gives them in different places.
# How the values were obtained:
# HepG2 cells [1] = test: Glutathione (GSH) content, Mercury Orange, flow cytometry; format: cell-based, human
# Method: (§1) To assess GSH content, cells re-suspended in PBS (see Section 3.3.1) were incubated with 40 μM Mercury Orange (1-(4-chloromercuryphenyl-azo-2-naphtol) for 5 min (in the dark, room temperature), as described by du Plessis, et al..
# Caco-2 cells [2] = test: as above; format: cell-based, human
# Method: as §1
# Caco-2 cells [3] = test system: Caco-2 cells; design: method as in doi:10.1016/j.envpol.2020.114660; conditions: Caco-2, 30 µg/mL (~100 µM), fluorescence microscopy; ref [34]; cited from earlier work
# HepG2 cells [4] = conditions: 24 h; for HepG2 FL2/FL1 ratio: mean ± SD
# From the text: (§2) Given the role of mitochondria in both oxidative stress and cell death (apoptosis), we evaluated the mitochondrial membrane potential (MMP) using the JC-1 probe (see methods for details). This probe accumulates in the mitochondria in the form of J-aggregates when in normal mitochondrial conditions (polarized) and presents red fluorescence. By contrast, in unhealthy cells, when depolarization occurs, JC-1 enters the mitochondria in lower concentrations forming monomers inducing a fluorescence shift to green fluorescence, thus the loss of MMP is observed through flow cytometry as a reduction in red (FL2) and an increase in green (FL1) fluorescence, or as a reduction in red/green (FL2/FL1) fluorescence ratio [45, 46].
# (§3) Pesticide-induced oxidative stress and apoptosis/necrosis events were analysed by flow cytometry. For this, one colour and two-colour flow cytometry assays were performed, using a BD Accuri™ C6 cytometer (Franklin Lakes, NJ, USA) equipment for data acquisition. Each assay was performed at least in triplicate (n = 3) and 5000 gated events were collected from each sample. Data analysis was performed using BD Accuri™ C6 Software, version 1.0.264.21 supplied by Becton Dickinson (Franklin Lakes, NJ, USA).
# (§4) Caco-2 and HepG2 cells (handled as described in Section 3.2.1) were seeded in 12-well microplates (at 5 × 10^4 cells/mL density; 750 µL/well), and allowed to adhere and stabilize for 48 h in the incubator. […] Negative control cells (non-exposed cells) were included in each assay. After a 24 h incubation with test solutions, cells were washed with phosphate buffer saline (PBS) solution and then detached from the microplates (as in Section 3.2.1) and placed in centrifuge tubes and centrifuged (5 min, 3000 rpm, bench micro-centrifuge). After eliminating the supernatant, cells were washed in PBS solution through another centrifuge cycle. Then cells were divided before being incubated with the specific markers to assess oxidative stress markers and cell apoptosis/necrosis.
# (§5) Mitochondrial membrane potential was analysed using JC-1 probe following the procedures as described by the manufacturer. Caco-2 and HepG2 cells suspended in PBS were centrifuged (5 min, 3000 rpm, bench micro-centrifuge), the supernatant was removed and 200 μL of JC-1 solution (2 μM; diluted in FBS-free culture media) was added to each sample. The samples were incubated for 20 min at 37 °C (in a CO2 incubator) and then analysed by flow cytometry. Negative control, non-exposed, and positive control cells exposed to the protonophore FCCP (5 μM; carbonyl cyanide p-trifluoromethoxyphenylhydrazone) were performed in each set of experiments.
# Caco-2 cells [5] = conditions: for Caco-2 FL2/FL1 ratio: mean ± SD
# From the text: as §2, §3, §4, §5
# Caco-2 cells [6] = test: Literature: Caco-2 cell viability; format: cell-based, human; conditions: Caco-2, 24 h, ref [34] value vs Table 1
# HepG2 cells [7] = test: Alamar Blue cell viability/cytotoxicity assay; format: cell-based, human; conditions: HepG2
# Method: (§6) In this study, to assess the cytotoxic activity of GLY, IMD, and IMZ, human epithelial colorectal adenocarcinoma (Caco-2), cell lines service (CLS), (Eppelheim, Germany) and human hepatocellular carcinoma (HepG2) (ATCC, Rockville, Maryland, USA) cells were used. Cells were cultured in complete culture media (Dulbecco’s Modified Eagle Media (DMEM), supplemented with 1 mM L-glutamine, 10% (v/v) foetal bovine serum (FBS), and antibiotics (penicillin at 100 U/mL, and streptomycin at 100 μg/mL)) and maintained at 5% CO2/95% air; 37 °C, controlled humidity, in an incubator. Cells were grown in T25 culture flasks to near confluence. Then, these adherent cells were treated with trypsin (trypsin-EDTA), for detachment and subculture, which was stopped using complete culture medium (1:1, trypsin:culture media) as soon as cells were detached (about 6 and 8 minutes of trypsin treatment for HepG2 and Caco-2 cells, respectively). Detached cells were gently re-suspended with a Pasteur pipette and then a sample was counted using an automated cell counter (TC10™, BIORAD, Portugal). A suspension of cells in fresh culture media, at 5 × 10^4 cells/mL was prepared to seed into 96-well microplates (100 µL/well). After seeding, cells were placed in the incubator for 48 h (to adhere and stabilize) before being used, for other details see [66, 67].
# (§7) Cell viability was assessed using the Alamar Blue® (AB) assay, after exposure to the pesticides. In summary, cells seeded into 96-well microplates were subjected to various concentrations of the pesticides (GLY: 0–1 mM; IMD: 0–1 mM; IMZ: 0–0.3 mM). To prepare the test solutions, the appropriate volume of the pesticide stock solution was diluted in FBS-free culture media just before its application to the cells. Stock solution of GLY was prepared in water (at 40 mM), and stock solutions of IMD and IMZ were prepared in DMSO (at 20 mM). After 24 h or 48 h of exposure, the test solutions were removed and the Alamar Blue solution (100 µL/well; 10% (v/v) in FBS-free medium) was immediately added to the cells, followed by a further 5 h incubation. The absorbance was then read at 570 and 620 nm using a microplate reader (Multiskan EX; MTX Lab Systems, Inc., Bradenton, FL, USA) and the percentage of the AB reduction was calculated according to the manufacturer’s instructions, as described before. Cell viability, at each condition, was calculated and expressed as percentage of control cells (non-exposed cells).
# (§8) The concentrations needed to reduce cell viability by 50% (IC50) were calculated from three independent experiments (each one performed in quadruplicates), as described.
# Caco-2 cells [8] = test: Alamar Blue cell viability/cytotoxicity assay; format: cell-based, human
# Method: as §6, §7, §8
compound,measurement,setting,value
"C=CCOC(Cn1ccnc1)c1ccc(Cl)cc1Cl (stereo not shown) [Imazalil, imazalil]",increase in GSH content vs control,"HepG2 cells [1]; HepG2, 75 μM, 24 h",1.97 fold
same,change in GSH content vs control (in words),"HepG2 cells [1]; HepG2, 24 h, tested concentrations",dose-dependent increase in GSH content
same,increase in GSH content vs control,"Caco-2 cells [2]; Caco-2, 250 μM, 24 h",1.59 fold
same,change in GSH content vs control (in words),"Caco-2 cells [2]; Caco-2, 24 h, tested concentrations",dose-dependent increase in GSH content
same,ROS content (in words),Caco-2 cells [3],increase in ROS content
same,FL2/FL1 ratio reduction (% of control),"HepG2 cells [4]; HepG2, 25 μM",56.22±16.07 % of control
same,HepG2 FL2/FL1 ratio,"HepG2 cells [4]; HepG2, 25 μM",0.10±0.03
same,FL2/FL1 ratio reduction (% of control),"HepG2 cells [4]; HepG2, 50 μM",57.15±8.10 % of control
same,HepG2 FL2/FL1 ratio,"HepG2 cells [4]; HepG2, 50 μM",0.10±0.02
same,"FL2/FL1 ratio reduced, relative to negative control","HepG2 cells [4]; HepG2, 75 μM",3.38 times
same,FL2/FL1 ratio reduction (% of control),"HepG2 cells [4]; HepG2, 75 μM",72.95±0.28 % of control
same,HepG2 FL2/FL1 ratio,"HepG2 cells [4]; HepG2, 75 μM",0.06±0.01
same,FL2/FL1 ratio reduction (% of control),"HepG2 cells [4]; HepG2, 75 μM, listed as IMZ",~ 73 % of control
same,FL2/FL1 ratio reduction (% of control),"Caco-2 cells [5]; Caco-2, 50 μM, 24 h",30.83±9.05 % of control
same,Caco-2 FL2/FL1 ratio,"Caco-2 cells [5]; Caco-2, 50 μM, 24 h",0.55±0.02
same,"FL2/FL1 ratio reduced, relative to negative control","Caco-2 cells [5]; Caco-2, 75 μM, 24 h",1.54 times
same,FL2/FL1 ratio reduction (% of control),"Caco-2 cells [5]; Caco-2, 75 μM, 24 h",34.30±6.61 % of control
same,Caco-2 FL2/FL1 ratio,"Caco-2 cells [5]; Caco-2, 75 μM, 24 h",0.52±0.03
same,FL2/FL1 ratio reduction (% of control),"Caco-2 cells [5]; Caco-2, 75 μM, 24 h, listed as IMZ",~ 34 % of control
same,FL2/FL1 ratio reduction (% of control),"Caco-2 cells [5]; Caco-2, 250 μM, 24 h",96.08±0.47 % of control
same,Caco-2 FL2/FL1 ratio,"Caco-2 cells [5]; Caco-2, 250 μM, 24 h",0.03±0.01
same,change in mitochondrial membrane potential (in words),"Caco-2 cells [5]; Caco-2, 24 h, tested concentrations, listed as IMZ",induced high changes in Caco-2 MMP
same,literature IC50 lower than the IC50 here reported,Caco-2 cells [6],2.53 fold
same,decrease in IC50 when doubling the exposure time (24 h to 48 h),HepG2 cells [7],2 fold
same,IC50 for Caco-2 cells relative to HepG2 cells,Caco-2 cells [8]; 24 h exposure,2.7 fold
same,IC50 for Caco-2 cells relative to HepG2 cells,Caco-2 cells [8]; 48 h exposure,4 fold
same,IC50 at 24 h relative to IC50 at 48 h,Caco-2 cells [8]; Caco-2,1.35 fold
same,IC50,"Caco-2 cells [8]; Caco-2, 24 h exposure, mean ± SD (n = 4), read-out: IC50 of pesticide-induced cytotoxicity",254 ± 3 µM
